Where a name gives a salt, the structure may show the parent alone. Where only a bound is given, the exact number is not on record here.

MBC data for one compound are collected here from patent US20210029998A1, “ACIDIC ANTIMICROBIAL COMPOSITION” (The Procter & Gamble Company, priority 2019, published 2021).

The subject of this assay is Staphylococcus aureus (S. aureus—ATCC #6538). Briefly: Minimum Biocidal Concentration (MBC) in suspension. Type of assay: cell-based. Here is the method: B) Antibacterial Efficacy (Minimum Biocidal Concentration in Suspension) The antimicrobial efficacy of the antimicrobial agent in the composition is determined by measuring its Minimum Biocidal Concentration (MBC). The MBC is defined as the lowest absolute concentration of the particular antimicrobial active which provides complete kill (zero bacterial growth). The MBC of the compositions herein is determined against the bacterium, Staphylococcus aureus (S. aureus—ATCC #6538), a gram positive bacterium, These microorganisms are representative of natural contaminants in many consumer and industrial applications. The bacteria inoculum is prepared by transferring several colonies from a Tryptone Soy Agar (TSA) plate to a saline solution (0.85% NaCl) comprising 5% of horse serum as additional soil load when indicated, the bacteria concentration in this saline solution is determined by measuring the % Transmittance at 425 nm and adjusted by either adding more bacteria or more saline solution until the % Transmittance at 425 nm is between 23-25% which corresponds to a bacteria concentration of 10^8 CFU/ml. The antimicrobial agent was added to the composition at a level of 1000 ppm, 500 ppm, or 200 ppm, or 100 ppm or 50 ppm. 200 μL of the antimicrobial hard surface cleaning composition was dosed into one well of row A of a 96 well microtiter plate. Each subsequent well (rows B to G) were dosed with 100 μL of the same hard surface cleaning composition, without the addition of the antimicrobial agent. 100 μL of the antimicrobial hard surface cleaning composition was transferred from row A to row B and mixed. 100 μL of the composition was then transferred from row B to row C and mixed, and the process repeated to row G. As such, the concentration of the antimicrobial agent underwent two-fold dilution in adjacent wells, while the concentration of the other actives in the hard surface cleaning composition remained constant across all the wells in the same column. 10 μL of the 10^8 CFU/ml bacteria suspension in saline was added to wells A to F of the microtiter plate with row G kept as a nil bacteria control. The final volume in each well was 110 μL, except for row G which comprised 100 μL of the hard surface cleaning composition and no bacteria suspension. Bacterial inoculation to each column was staggered by 30 seconds to allow for equal incubation times in all wells so that the contact time between the bacteria and the antimicrobial active for all samples was 6 mins. After this contact time, 10 μL of each test solution was transferred to 90 μL of neutraliser solution (Modified Letheen Broth+1.5% Polysorbate 80, supplied by BioMérieux) to stop the antimicrobial action of the antimicrobial active matching the stagger of the inoculation. 2 μL of this solution was plated onto a TSA plate matching the stagger of the inoculation so that all samples are exposed to the neutralizer for the same period of time. The plate is incubated at 32.5° C. for 48 h for S. aureus. MBC concentration is taken as the lowest concentration of the antimicrobial active at which no visible colony growth is observed on the TSA plate. The antibacterial efficacy of the bispyridinium alkane octenidine hydrochloride was compared to that of the quaternary ammonium compound n-alkyl dimethyl benzyl ammonium chloride/n-alkyl dimethyl ethylbenzyl ammonium chloride (BTC®2125-Stepan) in acidic compositions comprising 1% of the indicated surfactant. Compositions were acidified using either an inorganic acid (hydrochloric acid) or an organic acid (citric acid). The minimal biocidal concentration (MBC) in suspension of each antibacterial active against a gram positive bacterium (Staphylococcus aureus) was measured in the presence of 5% horse serum to mimic stressed soiled conditions. Contact time was 6 minutes except for the composition with 1% of dodecyldimethyl amine oxide that was 30 seconds.

As a reminder, the MBC is the smallest concentration meeting the test's criterion for killing. Low values mean greater bactericidal potency, high ones weaker bactericidal potency. As to `CCCCCCCCN=c1ccn(CCCCCCCCCCn2ccc(=NCCCCCCCC)cc2)cc1` [Octenidine, octenidine dihydrochloride], the MBC was 62.5 µg/mL (ATCC6538, 0.1 h, pH 3.83, acidic composition with 1% w/v D-glucopyranose oligomeric decyl octyl glucoside (Triton CG 50), citric acid, pH 3.83, 5% horse serum, contact time 6 minutes); 62.5 µg/mL (ATCC6538, 0.1 h, pH 3.83, acidic composition with 1% w/v cocoamidopropyl hydroxysultaine (Mackam SB 50), HCl, pH 3.83, 5% horse serum, contact time 6 minutes); 62.5 µg/mL (ATCC6538, 0.1 h, pH 3.86, acidic composition with 1% w/v C9-C11 alcohol EO8 (Neodol 91-8), HCl, pH 3.86, 5% horse serum, contact time 6 minutes); under 31 µg/mL (ATCC6538, 0.1 h, pH 3.86, acidic composition with 1% w/v C10 EO5 alcohol ethoxylate (Lutensol ON 50), HCl, pH 3.86, 5% horse serum, contact time 6 minutes); under 31 µg/mL (ATCC6538, 0.1 h, pH 3.87, acidic composition with 1% w/v 2-ethylhexyl PO5EO6 alkylalkoxylate (Ecosurf EH6), HCl, pH 3.87, 5% horse serum, contact time 6 minutes); 62.5 µg/mL (ATCC6538, pH 3.88, acidic composition with 1% w/v dodecyl dimethyl amine oxide (Empigem OB), citric acid, pH 3.88, 5% horse serum, contact time 30 seconds).
